Data reported in patent US20110230481A2, “DERIVATIVES OF TETRABROMOBENZIMIDAZOLE, A PROCESS FOR THE PREPARATION THEREOF, A PHARMACEUTICAL COMPOSITION COMPRISING THE SAME, A METHOD OF USING THE SAME, A METHOD FOR MODULATING OR REGULATING SERINE/THREONINE KINASES, AND SERINE/THREONINE KINASES MODULATING AGENT” (SELVITA S.A., priority 2009, published 2011).

How the values were obtained:
Experiment in all cases: KINOMEscan Max
Type in all cases: binding
FAK = biological target: T1, FAK (Homo sapiens, UniProt Q05397)
T1 construct: DNA tag (qPCR read-out)
Method in brief: (§1)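 Measures binding, not catalysis: three components (DNA-tagged kinase, immobilized active-site directed ligand, test compound) are combined, and competition is read out by quantitative PCR of the tag.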

TGFBR2 = biological target: T2, TGFBR2 (Homo sapiens, UniProt P37173)
T2 construct: purchased Ambit Kinomescan (contract screening service)
Method in brief: as §1

PKMYT1 = PKMYT1 (Homo sapiens, UniProt Q99640); settings: 1 μM
Method in brief: as §1

CSNK1A1L = CSNK1A1L (Homo sapiens, UniProt Q8N752)
Method in brief: as §1

ERK5 = biological target: T3, ERK5 (Homo sapiens, UniProt Q13164)
T3 construct: purchased Ambit Kinomescan (contract panel, KINOMEscan Max)
Method in brief: as §1

PIK3C2G = biological target: T4, PIK3C2G (Homo sapiens, UniProt O75747)
T4 construct: DNA tag (qPCR read-out)
Method in brief: as §1

CAMK2B = biological target: T5, CAMK2B (Homo sapiens, UniProt Q13554)
T5 construct: purchased Ambit Kinomescan (contract screening)
Method in brief: as §1

ASK1 = biological target: T6, ASK1 (Homo sapiens, UniProt Q99683)
T6 construct: DNA tag (qPCR label); purchased Ambit Kinomescan (contract screening)
Method in brief: as §1

MRCKA = MRCKA (Homo sapiens, UniProt Q5VT25)
Method in brief: as §1

SIK = biological target: T7, SIK (Homo sapiens, UniProt P57059); settings: 1 μM
T7 construct: DNA tag (qPCR read-out)
Method in brief: as §1

CTK = CTK (Homo sapiens, UniProt P42679)
Method in brief: as §1

SGK3 = biological target: T8, SGK3 (Homo sapiens, UniProt Q96BR1)
T8 construct: DNA tag (qPCR read-out)
Method in brief: as §1

FGR = biological target: T9, FGR (Homo sapiens, UniProt P09769)
T9 construct: purchased Ambit Kinomescan (contract panel, KINOMEscan Max)
Method in brief: as §1

IRAK4 = biological target: T10, IRAK4 (Homo sapiens, UniProt Q9NWZ3); settings: 1 μM
T10 construct: purchased Ambit Kinomescan (contract panel)
Method in brief: as §1

PLK3 = biological target: T11, PLK3 (Homo sapiens, UniProt Q9H4B4)
T11 construct: purchased Ambit (KINOMEscan Max service)
Method in brief: as §1

PIK3CD = biological target: T12, PIK3CD (Homo sapiens, UniProt O00329)
T12 construct: DNA tag (qPCR read-out)
Method in brief: as §1

BMX = biological target: T13, BMX (Homo sapiens, UniProt P51813)
T13 construct: DNA tag (qPCR read-out)
Method in brief: as §1

SBK1 = biological target: T14, SBK1 (Homo sapiens, UniProt Q52WX2)
T14 construct: purchased Ambit (KINOMEscan Max service)
Method in brief: as §1

CDK4-cyclinD3 = CDK4-cyclinD3 (Homo sapiens, UniProt P11802)
Method in brief: as §1

MYO3B = MYO3B (Homo sapiens, UniProt Q8WXR4)
Method in brief: as §1

YANK1 = biological target: T15, YANK1 (Homo sapiens, UniProt Q8WU08)
T15 construct: purchased Ambit Kinomescan (contract screening service)
Method in brief: as §1

CDK4-cyclinD1 = biological target: T16, CDK4-cyclinD1 (Homo sapiens, UniProt P11802)
T16 construct: DNA tag (qPCR label); purchased Ambit Kinomescan (contract screening)
Method in brief: as §1

BTK = biological target: T17, BTK (Homo sapiens, UniProt Q06187); settings: 1 μM
T17 construct: purchased Ambit (KINOMEscan Max service)
Method in brief: as §1

TNK1 = biological target: T18, TNK1 (Homo sapiens, UniProt Q13470)
T18 construct: DNA tag (qPCR read-out)
Method in brief: as §1

PIP5K1C = PIP5K1C (Homo sapiens, UniProt O60331); settings: 1 μM
Method in brief: as §1

MARK2 = MARK2 (Homo sapiens, UniProt Q7KZI7)
Method in brief: as §1

TNNI3K = biological target: T19, TNNI3K (Homo sapiens, UniProt Q59H18)
T19 construct: purchased Ambit Kinomescan (contract screening service)
Method in brief: as §1

PRKG2 = biological target: T20, PRKG2 (Homo sapiens, UniProt Q13237)
T20 construct: DNA tag (qPCR read-out); purchased Ambit Kinomescan
Method in brief: as §1

RAF1 = biological target: T21, RAF1 (Homo sapiens, UniProt P04049)
T21 construct: DNA tag (qPCR read-out)
Method in brief: as §1

[1] = biological target: ABL1(T315I)-phosphorylated (Homo sapiens, UniProt P00519, T315I)
Method in brief: as §1

LRRK2 = LRRK2 (Homo sapiens, UniProt Q5S007)
Method in brief: as §1

FER = biological target: T22, FER (Homo sapiens, UniProt P16591)
T22 construct: purchased Ambit Kinomescan (contract panel, KINOMEscan Max)
Method in brief: as §1

MAP4K3 = biological target: T23, MAP4K3 (Homo sapiens, UniProt Q8IVH8); settings: 1 μM
T23 construct: purchased Ambit (KINOMEscan Max service)
Method in brief: as §1

GRK1 = GRK1 (Homo sapiens, UniProt Q15835)
Method in brief: as §1

[2] = biological target: T24, RSK4(Kin.Dom.1-N-terminal) (Homo sapiens, UniProt Q9UK32); settings: 1 μM
T24 construct: RSK4(Kin.Dom.1-N-terminal); DNA tag (qPCR read-out)
Method in brief: as §1

T1 sequence (Q05397 whole entry): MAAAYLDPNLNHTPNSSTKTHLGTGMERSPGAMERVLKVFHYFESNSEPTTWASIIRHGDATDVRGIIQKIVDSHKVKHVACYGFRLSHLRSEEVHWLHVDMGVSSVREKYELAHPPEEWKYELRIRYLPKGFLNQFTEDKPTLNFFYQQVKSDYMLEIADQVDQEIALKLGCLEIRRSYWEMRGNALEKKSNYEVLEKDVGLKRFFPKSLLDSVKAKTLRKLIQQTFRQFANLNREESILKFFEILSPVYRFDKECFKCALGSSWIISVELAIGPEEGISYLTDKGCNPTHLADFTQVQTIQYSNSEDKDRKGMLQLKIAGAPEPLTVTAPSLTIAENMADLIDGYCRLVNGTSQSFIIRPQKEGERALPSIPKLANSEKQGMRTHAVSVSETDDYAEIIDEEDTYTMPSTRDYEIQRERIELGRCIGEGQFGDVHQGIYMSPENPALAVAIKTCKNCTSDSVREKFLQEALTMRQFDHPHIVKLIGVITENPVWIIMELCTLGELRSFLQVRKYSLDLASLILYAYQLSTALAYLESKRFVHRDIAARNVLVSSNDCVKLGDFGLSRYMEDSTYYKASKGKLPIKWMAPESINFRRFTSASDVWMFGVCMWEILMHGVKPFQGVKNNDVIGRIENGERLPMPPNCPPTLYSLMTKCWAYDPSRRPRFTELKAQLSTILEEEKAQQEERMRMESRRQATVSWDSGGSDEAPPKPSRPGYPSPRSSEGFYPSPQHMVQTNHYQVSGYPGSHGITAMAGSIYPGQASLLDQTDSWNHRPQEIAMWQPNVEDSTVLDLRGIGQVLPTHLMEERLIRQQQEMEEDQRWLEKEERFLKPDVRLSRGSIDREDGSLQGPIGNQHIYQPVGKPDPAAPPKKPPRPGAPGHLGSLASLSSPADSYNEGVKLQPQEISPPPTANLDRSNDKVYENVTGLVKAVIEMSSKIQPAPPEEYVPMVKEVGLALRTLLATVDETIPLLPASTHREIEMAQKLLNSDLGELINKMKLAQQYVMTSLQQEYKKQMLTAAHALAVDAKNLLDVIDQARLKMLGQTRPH
T21 sequence (P04049 whole entry): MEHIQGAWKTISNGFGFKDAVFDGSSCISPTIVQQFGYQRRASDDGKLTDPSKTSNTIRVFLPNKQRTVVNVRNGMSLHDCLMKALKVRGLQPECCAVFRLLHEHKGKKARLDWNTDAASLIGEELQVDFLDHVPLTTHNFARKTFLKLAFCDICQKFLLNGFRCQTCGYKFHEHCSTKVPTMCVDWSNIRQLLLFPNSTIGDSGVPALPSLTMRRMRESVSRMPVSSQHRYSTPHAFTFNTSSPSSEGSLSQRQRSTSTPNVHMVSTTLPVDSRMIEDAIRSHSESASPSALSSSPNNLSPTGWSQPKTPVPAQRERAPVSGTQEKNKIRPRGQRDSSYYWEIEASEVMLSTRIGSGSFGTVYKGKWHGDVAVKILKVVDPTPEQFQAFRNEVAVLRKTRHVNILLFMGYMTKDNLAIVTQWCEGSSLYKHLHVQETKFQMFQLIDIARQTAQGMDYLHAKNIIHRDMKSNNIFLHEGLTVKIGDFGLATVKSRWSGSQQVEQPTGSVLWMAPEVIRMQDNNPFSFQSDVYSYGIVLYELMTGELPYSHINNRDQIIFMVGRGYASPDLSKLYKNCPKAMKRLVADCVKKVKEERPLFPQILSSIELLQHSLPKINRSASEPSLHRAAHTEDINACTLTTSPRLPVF
Sequence of GRK1 (Q15835 whole entry): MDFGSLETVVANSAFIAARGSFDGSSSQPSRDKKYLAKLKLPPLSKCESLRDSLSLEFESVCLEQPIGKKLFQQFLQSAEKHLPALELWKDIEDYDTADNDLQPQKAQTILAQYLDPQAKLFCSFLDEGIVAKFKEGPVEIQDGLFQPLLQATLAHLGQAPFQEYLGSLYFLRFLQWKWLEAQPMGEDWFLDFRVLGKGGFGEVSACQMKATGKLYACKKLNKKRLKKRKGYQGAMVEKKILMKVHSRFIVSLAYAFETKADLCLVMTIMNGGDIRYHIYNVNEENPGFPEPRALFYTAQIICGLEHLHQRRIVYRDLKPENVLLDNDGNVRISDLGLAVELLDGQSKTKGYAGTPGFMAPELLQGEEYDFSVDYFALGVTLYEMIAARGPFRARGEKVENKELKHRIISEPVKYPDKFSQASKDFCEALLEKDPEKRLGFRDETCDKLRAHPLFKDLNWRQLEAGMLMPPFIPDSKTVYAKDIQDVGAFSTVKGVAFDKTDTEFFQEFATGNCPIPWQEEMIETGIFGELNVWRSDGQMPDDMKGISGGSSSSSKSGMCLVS
T20 sequence (Q13237 whole entry): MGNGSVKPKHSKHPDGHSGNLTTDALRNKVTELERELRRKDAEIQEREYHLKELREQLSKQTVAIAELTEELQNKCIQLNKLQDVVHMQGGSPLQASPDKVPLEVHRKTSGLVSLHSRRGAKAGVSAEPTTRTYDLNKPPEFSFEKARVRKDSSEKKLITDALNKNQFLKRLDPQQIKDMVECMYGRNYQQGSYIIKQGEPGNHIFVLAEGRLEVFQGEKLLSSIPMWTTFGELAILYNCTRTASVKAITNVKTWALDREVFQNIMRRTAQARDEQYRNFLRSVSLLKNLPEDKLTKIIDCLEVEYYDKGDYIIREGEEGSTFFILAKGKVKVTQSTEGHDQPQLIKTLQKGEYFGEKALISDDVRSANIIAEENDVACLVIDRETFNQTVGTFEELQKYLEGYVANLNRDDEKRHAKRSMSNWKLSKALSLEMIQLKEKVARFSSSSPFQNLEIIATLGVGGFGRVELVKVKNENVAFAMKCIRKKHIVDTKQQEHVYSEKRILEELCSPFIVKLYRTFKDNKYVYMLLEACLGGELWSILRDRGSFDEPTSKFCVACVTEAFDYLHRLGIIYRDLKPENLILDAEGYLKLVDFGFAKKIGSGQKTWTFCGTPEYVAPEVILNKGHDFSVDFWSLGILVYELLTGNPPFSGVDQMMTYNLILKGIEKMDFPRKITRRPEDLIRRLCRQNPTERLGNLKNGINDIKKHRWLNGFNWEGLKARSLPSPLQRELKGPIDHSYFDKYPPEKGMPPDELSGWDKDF
T13 sequence (P51813 whole entry): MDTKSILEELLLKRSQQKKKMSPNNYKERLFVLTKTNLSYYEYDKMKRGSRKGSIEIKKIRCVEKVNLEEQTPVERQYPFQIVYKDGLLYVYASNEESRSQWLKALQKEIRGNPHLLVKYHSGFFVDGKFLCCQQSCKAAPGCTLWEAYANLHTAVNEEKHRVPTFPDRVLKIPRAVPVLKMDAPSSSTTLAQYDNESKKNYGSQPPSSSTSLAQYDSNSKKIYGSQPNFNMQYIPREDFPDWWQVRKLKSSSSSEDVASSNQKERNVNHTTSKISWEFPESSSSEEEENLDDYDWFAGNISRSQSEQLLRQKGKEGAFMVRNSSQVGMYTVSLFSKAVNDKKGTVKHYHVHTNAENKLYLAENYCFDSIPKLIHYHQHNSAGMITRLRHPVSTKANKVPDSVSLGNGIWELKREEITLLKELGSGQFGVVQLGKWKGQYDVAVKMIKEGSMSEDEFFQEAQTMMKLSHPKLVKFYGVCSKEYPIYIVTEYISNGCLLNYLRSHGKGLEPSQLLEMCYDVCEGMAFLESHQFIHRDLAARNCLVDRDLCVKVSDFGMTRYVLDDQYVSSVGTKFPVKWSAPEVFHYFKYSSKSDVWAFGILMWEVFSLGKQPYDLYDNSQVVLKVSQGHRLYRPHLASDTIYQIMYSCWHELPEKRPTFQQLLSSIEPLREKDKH
T9 sequence (P09769 whole entry): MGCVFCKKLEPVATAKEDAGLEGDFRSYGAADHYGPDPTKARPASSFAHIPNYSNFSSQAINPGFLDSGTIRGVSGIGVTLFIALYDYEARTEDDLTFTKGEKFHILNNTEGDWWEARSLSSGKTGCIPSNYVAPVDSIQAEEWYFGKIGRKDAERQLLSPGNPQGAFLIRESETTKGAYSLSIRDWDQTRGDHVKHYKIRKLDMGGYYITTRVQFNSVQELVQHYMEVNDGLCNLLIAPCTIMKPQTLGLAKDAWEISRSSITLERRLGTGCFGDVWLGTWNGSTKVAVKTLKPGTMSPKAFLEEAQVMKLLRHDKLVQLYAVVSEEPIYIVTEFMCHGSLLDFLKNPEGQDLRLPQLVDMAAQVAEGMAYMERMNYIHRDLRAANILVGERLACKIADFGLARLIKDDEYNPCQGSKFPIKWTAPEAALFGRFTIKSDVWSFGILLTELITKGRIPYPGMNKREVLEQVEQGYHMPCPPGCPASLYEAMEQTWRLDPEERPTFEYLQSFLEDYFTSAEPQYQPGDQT
T15 sequence (Q8WU08 whole entry): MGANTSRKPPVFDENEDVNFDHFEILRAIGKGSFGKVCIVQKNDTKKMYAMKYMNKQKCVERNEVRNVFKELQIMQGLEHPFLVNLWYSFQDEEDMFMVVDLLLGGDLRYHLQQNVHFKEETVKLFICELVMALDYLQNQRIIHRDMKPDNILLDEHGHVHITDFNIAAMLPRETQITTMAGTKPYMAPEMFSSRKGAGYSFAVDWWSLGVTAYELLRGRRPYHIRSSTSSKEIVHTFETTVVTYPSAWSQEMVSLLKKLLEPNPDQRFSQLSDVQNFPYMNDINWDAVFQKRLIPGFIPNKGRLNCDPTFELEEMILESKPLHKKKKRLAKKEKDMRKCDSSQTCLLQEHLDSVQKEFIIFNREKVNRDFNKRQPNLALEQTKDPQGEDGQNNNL
T24 sequence (Q9UK32 73-330 limits assumed): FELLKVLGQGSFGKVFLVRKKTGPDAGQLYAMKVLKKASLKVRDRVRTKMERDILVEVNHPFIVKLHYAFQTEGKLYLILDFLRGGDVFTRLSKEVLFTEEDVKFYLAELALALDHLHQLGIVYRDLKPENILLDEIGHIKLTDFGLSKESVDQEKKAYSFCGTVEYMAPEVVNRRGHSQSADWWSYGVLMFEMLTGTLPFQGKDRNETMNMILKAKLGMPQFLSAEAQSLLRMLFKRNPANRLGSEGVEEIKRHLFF

## NCCCNc1nc2c(Br)c(Br)c(Br)c(Br)c2[nH]1 [Compound 11, N-(3-aminopropyl)-4,5,6,7-tetrabromo-1H-benzo[d]imidazol-2-amine]
FAK
  remaining binding at 1 µM: 89%
TGFBR2
  remaining binding at 1 µM: 100%
PKMYT1
  % binding: 99%
CSNK1A1L
  remaining binding at 1 µM: 76%
ERK5
  remaining binding at 1 µM: 100%
PIK3C2G
  remaining binding at 1 µM: 100%
CAMK2B
  remaining binding at 1 µM: 97%
ASK1
  remaining binding at 1 µM: 100%
MRCKA
  remaining binding at 1 µM: 100%
SIK
  % binding: 100%
CTK
  remaining binding at 1 µM: 74%
SGK3
  remaining binding at 1 µM: 100%
FGR
  remaining binding at 1 µM: 100%
IRAK4
  % binding: 100%
PLK3
  remaining binding at 1 µM: 67%
PIK3CD
  remaining binding at 1 µM: 100%
BMX
  remaining binding at 1 µM: 88%
SBK1
  remaining binding at 1 µM: 59%
CDK4-cyclinD3
  remaining binding at 1 µM: 92%
MYO3B
  remaining binding at 1 µM: 100%
YANK1
  remaining binding at 1 µM: 100%
CDK4-cyclinD1
  remaining binding at 1 µM: 100%
BTK
  % binding: 85%
TNK1
  remaining binding at 1 µM: 90%
PIP5K1C
  % binding: 95%
MARK2
  remaining binding at 1 µM: 94%
TNNI3K
  remaining binding at 1 µM: 100%
PRKG2
  remaining binding at 1 µM: 7%
RAF1
  remaining binding at 1 µM: 86%
[1]
  remaining binding at 1 µM: 100%
LRRK2
  remaining binding at 1 µM: 94%
FER
  remaining binding at 1 µM: 100%
MAP4K3
  % binding: 85%
GRK1
  remaining binding at 1 µM: 96%
[2]
  % binding: 100%
